Measurements reported in patent US20130244875A1, “METHODS AND COMPOSITIONS FOR IMPROVING PLANT HEALTH” (priority 2006, published 2013).
Like-named read-outs stand apart in the source and are kept apart here.

Legend:
[1] = test system: PR-2, i.e., β-1,3-glucanase; assay: Induction of PR2 (northern blot) in DMO soybean sprayed with dicamba or DCSA; type: in vivo
Protocol: A 14 hour minimum photoperiod was provided with supplemental light at about 600 μE (micro-Einsteins) as needed. Trials were established in a randomized block design randomized by rate with 4 to 6 replications of each treatment.
All herbicide applications were made with the track sprayer using a Teejet® 9501E flat fan nozzle (Spraying Systems Co, Wheaton, Ill.) with air pressure set at a minimum of 24 psi (pounds per square inch), or 165 kpa (kilopascals)). The spray nozzle was kept at a height of about 16 inches above the top of plant material for spraying. The spray volume was 10 gallons per acre or 93 liters per hectare. Applications were made when plants had reached V-3 stage.
Events carrying a DMO transgene in their genome were grown and treated with dicamba (Clarity®, BASF) at 1 lb/Acre at Post-V3 stage. Leaf samples were harvested after 0, 3, 8, 24, 48, 72 hrs after treatment (HAT) and frozen for further analysis. In another experiment, DMO-containing plants were sprayed with either dicamba or DCSA at 0.25, 0.5 and 1 lb/Acre rate and tissue samples were collected 24 HAT. RNA was extracted and analyzed by northern blot analysis using PR-2, i.e., β-1,3-glucanase as a probe. PR-2 is a pathogenesis-related protein known to degrade […] and thus provide protection against fungal pathogens (U.S. Pat. No. 5,670,706 and Uknes et al., 1992).

PR5 = assay: Induction of PR5 (northern blot) by dicamba or DCSA; type: in vivo, soybean; details: probe specific to PR5; procedures as for PR2
transgenic soybean = assay: Soybean yield field trials with dicamba treatments
Protocol: The yield enhancing-benefit of DSCA was tested by growing non-transgenic and transgenic plants and applying dicamba to transgenic plants and harvesting the seeds. Non-transgenic and transgenic soybean seeds were planted near the beginning of the growing season in several locations at the time of best possible growth conditions such as soil moisture, temperature, and seeding depth. Across all locations seeds were planted under split-plot design with dicamba treatments as whole-plot effects and events as split-plot effects. The design details were as follows: 6 locations, 2 replications/location, 2 rows/plot, row length 12 feet (+3 ft alley), 9 seeds/foot, 108 seeds/row, 5 events (events 1-4 and a fifth event that was segregating); and 4 treatments as shown below in Table 4. In all, 240 plots were planted at 6 locations (40 per location).
Four non-transgenic border rows were planted all around the trial using a known commercial line such as A3525. Optimum production and management practices known in the art were followed. Maximum pest control and disease control was practiced as needed to prevent confounding effects of dicamba applications. The field was irrigated as needed according to standard practices.
The treatments were: untreated (Untrt); 1 lb/A dicamba at planting followed by 1 lb/A dicamba at V3 growth stage (1×1); 2 lb/A dicamba at planting followed by 2 lb/A dicamba at V3 growth stage (2×2); and 1 lb/A dicamba at planting followed by 1 lb/A dicamba at V3 growth stage followed by 1 lb/A dicamba at R1 stage (1×1×1).

[2] = test system: transgenic soybean seeds containing the DMO gene; details: 22° C., 1 low, 2 moderate, 3 high, N=10
Protocol: Transgenic soybean seeds containing the DMO gene were germinated in the presence of 100 or 200 mM sodium chloride (NaCl, salt). […] A diglycoamine salt of dicamba (Clarity) was applied to 113.5 g samples of soy in a water based slurry that contained an agricultural dye. Slurry and dye rates were 8 and 0.5 fl oz/cwt. Aliquots of each dicamba solution were added to seeds contained in a glass jar and agitated. After uniform coverage was attained, seeds were placed on towels and allowed to dry. Non-DMO soybeans were treated at rates of 0, 0.5, 2.5, and 5.0 g ai/100 kg. DMO soybeans were treated with 0, 0.5 and 2.5 g ai/100 kg. Seed germination was scored DAT (2 days after treatment) or 5DAT (days after treatment) at 22° C. The germination rate was scored as 1—low, 2—moderate, 3—high for each treatment, N=10.

[3] = 24 hours at 30° C., RP-HPLC
Protocol: Leaf strip and whole plant studies were performed using liquid chromatography assays to determine metabolism of dicamba to DCSA in soybeans. Leaf tissue was removed from wild-type soybean plants and soybean plants transgenic for the DMO gene and were cut into 1 mm strips, the strips then incubated in 25 mM Tris pH 7.5 with radiolabeled dicamba (14C dicamba) for 24 hours at 30° C. After incubation, the leaf tissue was homogenized with a spinning pestle, acidified, solids pelleted by centrifugation and an aliquot of the supernatant analyzed by RP-HPLC equipped with a radiation detector.

[4] = test system: soybean plants transgenic for the DMO gene; details: DMO transgenic soybean sprayed at up to 2.5 lb/A; various times; RP-HPLC
Protocol: For whole plant assays, soybean plants transgenic for the DMO gene were treated with 14C dicamba by spraying the plants with a solution containing the 14C dicamba at a rate up to 2.5 lb/A. Leaf samples from the treated plants were collected at various times after treatment and analyzed for the DMO metabolites by RP-HPLC. The leaf tissue was homogenized with a spinning pestle, acidified, solids pelleted by centrifugation and an aliquot of the supernatant analyze by RP-HPLC equipped with a radiation detector.

[5] = 200 mM NaCl, 0.5 g ai/100 kg dicamba seed treatment, 0.0 dicamba 1
[6] = 200 mM NaCl, 2.5 g ai/100 kg dicamba seed treatment, 0.0 dicamba 1

**Q.** Which “time of peak induction of PR2” value ([1]; DMO soybean, dicamba 1 lb/Acre at Post-V3) does the source give for `COc1c(Cl)ccc(Cl)c1C(=O)O` [Dicamba, 3,6-dichloro-2-methoxybenzoic acid] here?
**A.** The value was 48 h.

**Q.** What about the “induction of PR2 at various time points” value ([1]; DMO soybean, dicamba 1 lb/Acre at Post-V3, 0-72 HAT, no induction in untreated plants) of the same compound?
**A.** The value was “induction of PR2”.

**Q.** And the “induction of PR2 at various rates” value ([1]; two transgenic soybean lines, 0.25, 0.5 and 1 lb/Acre, 24 hrs after treatment, no induction in untreated or water only)?
**A.** The value was “induction of PR2”.

**Q.** And the “induction of PR5” value (PR5)?
**A.** Its value is “Induction of PR5”.

**Q.** What about the “yield compared with unsprayed controls” value (transgenic soybean; DMO soybean, dicamba 1.5 lb ae/Acre Pre, Post or both, in 4/5 events and 13/15 treatments, 6 locations) of the same compound?
**A.** The value was “an increase or equivalent yield to unsprayed controls”.

**Q.** What about the “increase in seed yield” value (transgenic soybean; three DMO soybean events, dicamba treatments vs untreated, average of 15 locations) of the same compound?
**A.** Its value is “up to 4.6%”.

**Q.** And the “maturity of dicamba treated plants compared with untreated plant” value (transgenic soybean; transgenic soybean, agronomic and efficacy trials)?
**A.** Its value is “no delay in maturity”.

**Q.** What about the “Germination rating 2DAT” value ([2]; 100 mM NaCl, 0.5 g ai/100 kg dicamba seed treatment, 0.0 dicamba 1) of the same compound?
**A.** Its value is 2.

**Q.** What about the “Germination rating 5DAT” value ([2]; 100 mM NaCl, 0.5 g ai/100 kg dicamba seed treatment, 0.0 dicamba 2) of the same compound?
**A.** The value was 3.

**Q.** What about the “Germination rating 2DAT” value ([2]; 100 mM NaCl, 2.5 g ai/100 kg dicamba seed treatment, 0.0 dicamba 1) of the same compound?
**A.** Its value is 2.

**Q.** What about the “Germination rating 5DAT” value ([2]; 100 mM NaCl, 2.5 g ai/100 kg dicamba seed treatment, 0.0 dicamba 2) of the same compound?
**A.** Its value is 3.

**Q.** And the “Germination rating 2DAT” value [2, 5]?
**A.** The value was 1.5.

**Q.** What about the “Germination rating 5DAT” value [2, 5] of the same compound?
**A.** Its value is 2.

**Q.** And the “Germination rating 2DAT” value [2, 6]?
**A.** Its value is 1.5.

**Q.** What about the “Germination rating 5DAT” value [2, 6] of the same compound?
**A.** The value was 1.

**Q.** And the “metabolism of radiolabeled dicamba” value ([3]; leaf strips of transgenic DMO gene containing soybean)?
**A.** The value was “metabolized to DCSA and other polar metabolites”.

**Q.** And the “metabolism of radiolabeled dicamba” value ([3]; leaf strips of wild-type soybean)?
**A.** Its value is “not in the wild-type soybean plants”.

**Q.** And the “metabolites of 14C dicamba in leaf samples” value [4]?
**A.** Its value is “DCSA is produced as a metabolite of dicamba”.
